Measurements as given in US20100047841A1, “SYNTHESIS OF DESACETOXYTUBULYSIN H AND ANALOGS THEREOF” (University of Pittsburgh-of the Commonwealth System of …, priority 2007, published 2010).
Structures can show the parent of a compound that is named as a salt. Where two headings read alike, the source gives them in different places.

Key:
[1] = test system: T98G human glioblastoma cell line; assay: Antiproliferative assay (MTS), GI50 in T98G cells; assay type: cell-based; details: for GI50: Homo sapiens, T98G
Source text: General methods are known for determining the effect of compounds on proliferation of cells. See, e.g., Zhu et al., J. Med. Chem., 2006, 49, 2063-2076. Cells can be selected by one of skill in the art and can be maintained as exponentially growing cultures in a suitable medium (e.g., RPMI 1640 medium) with adjuvents, including FBS, penicillin, and glutamine, provided at levels known to those skilled in this field. For human cancer cells, e.g., human glioblastoma cell line T98G, the cells can be trypsinized and washed prior to formation of a cell suspension in appropriate buffer and plating of the cell suspension. Typical microtiter plate amounts can be 500-2000 cells/well. The cells can be allowed to attach and grow for a defined time period (e.g., 36 hours, 72 hours, 96 hours, or other defined period) before treatment with either vehicle (e.g., dimethylsulfoxide) or test agent (e.g., compound of the invention) followed by an additional defined time period (e.g., 36 hrs, 72 hrs, 96 hrs, and the like). At the end of the additional defined time period, viability of the cells can be determined by any of a variety of methods known in the art, including assays employing MTS (3-(4,5-dimethylthiazol-2-yl)-5-(3-carboxymethoxyphenyl)-2-(4-sulfophenyl)-2H-tetrazolium), as described by -Cory et al., Cancer Commun., 1991, 3, 207-212. […] Replicates are typically assayed to allow determination of appropriate statistical properties as known in the art.
Compounds of the invention with structures of Formulae Xa, XVb, and XVa were assayed for inhibition of growth of the T98G human glioblastoma cell line (Table II).
Human glioblastoma T98G cells (American Type Culture Collection, Manassas, Va.) were maintained as exponentially growing cultures in an RPMI 1640 medium with 10% FBS, 1% penicillin and 1% glutamine. The cells were seeded into 96-well plates and allowed to attach and grow for 48 hours. One plate of cells was used for a time zero cell number determination (N=16), and cells in other plates were treated for 72 hours or 96 hours with either DMSO (1% v/v; N=8 for each plate) or a range of concentrations, in quadruplicate, of test agents. Cell number was determined spectrophotometrically at 490 nm minus absorbance at 630 nm after exposure to 3-(4,5-dimethylthiazol-2-yl)-5-(3-carboxymethoxyphenyl)-2-(4-sulfophenyl)-2H-tetrazolium (MTS) and N-methylphenazine methylsulfate. The fifty percent growth inhibitory concentrations (GI50) of test agents were calculated from the spectrophotometrically determined growth of the control cells over the 72- or 96-hour period.

[2] = test system: bovine brain tubulin (vinca domain); assay: Inhibition of [3H]vinblastine binding to tubulin (centrifugal gel filtration); details: for % Inhibition of [3H]vinblastine binding by 5 μM test agent / IC50: 10 μM radiotracer, 10 μM tubulin; for % Inhibition of [3H]vinblastine binding by 5 μM test agent: 30 min room temperature; for IC50: test agent 0.5-100 μM, Hill fit
Description: (§1) The new compounds were tested for their abilities to bind at the vinca domain and at the related peptide/depsipeptide site on tubulin using a modification of a centrifugal gel filtration method described by Bai et al., Mol. Pharmacol. 7: 965-76 (1995). In the initial screens, each 0.32 mL reaction mixture contained 5 μM test agent and 10 μM [^3H]vinblastine (specific activity 8.50 Ci/mmol; GE Healthcare Bio-Sciences, Picataway, N.J.) or 10 μM [^3H]dolastatin 10 (specific activity 1.96 Ci/mmol; obtained from the Drug Synthesis and Chemistry Branch of the National Cancer Institute) predissolved in DMSO (final concentration 1% v/v) and 10 μM bovine brain tubulin, all in 0.1 M 2-(4-morpholino)ethanesulfonic acid (Mes), pH 6.9, containing 0.5 mM MgCl2. The mixture was incubated for 30 min at room temperature. Two 0.15 mL aliquots of the reaction mixture were applied to duplicate 2 mL beds of pre-swollen (in Mes, pH 6.9, containing 0.5 mM MgCl2) Sephadex G-50 (superfine) contained in Handee columns (Pierce Biotechnology, Rockford, Ill.). The columns were centrifuged at 800×g for 4 minutes and the protein concentration in the effluent was determined, using the bicinchoninic acid assay. The amount of radiolabeled ligand bound to tubulin was determined using scintillation spectrometry. Each value represents the mean ±SD of four determinations. […] Inhibition was calculated as the percent difference relative to that of the control incubation with DMSO (i.e., without test agent—assigned as 0% inhibition). […] GraphPad Prism was used to fit the resulting data to the Hill equation to determine the IC50 values.

[3] = test system: bovine brain tubulin; assay: Inhibition of GTP-induced tubulin assembly (turbidimetry at 350 nm); assay type: biochemical; details: after 20 min at 30° C., 10 μM bovine brain tubulin, 0.8 M monosodium glutamate
Description: Bovine brain tubulin was isolated to electrophoretic homogeneity from fresh brains via methodology described by Hamel and Lin, Biochemistry 23: 4173-84 (1984). Tubulin (final concentration 10 μM; 1 mg/mL) was preincubated with test agents dissolved in DMSO (4% v/v final concentration) and monosodium glutamate (0.8 M final concentration, pH 6.6) for 15 minutes at 30° C. The reaction mixture was cooled to 0° C., and GTP (0.4 mM final concentration) was added. Reaction mixtures were transferred to cuvettes held at 2.5° C. in a Beckmann DU 7400 multichannel, temperature-controlled (Peltier unit) spectrophotometer, reading absorbance (turbidity) at 350 nm in each cuvette every 15 seconds. Baselines were established and temperature was quickly raised to 30° C. (in approximately 1 minute). After 20 minutes, the temperature was returned to 2.5° C. The turbidity value after 20 minutes at 30° C. for GTP alone was assigned as 100% assembly, and for DMSO alone as 0% assembly. The IC50 was calculated by linear regression of the percent assembly values at the same time point obtained with 0.625, 1.25, 2.5, 5, 10 and 20 μM test agent. In experiments to test for disassembly of preformed tubulin polymer, the test agent was added after 7 minutes of GTP-induced assembly.

[4] = test system: bovine brain tubulin (peptide/depsipeptide site); assay: Inhibition of [3H]dolastatin 10 binding to tubulin (centrifugal gel filtration); details: 10 μM radiotracer, 10 μM tubulin; for % Inhibition of [3H]dolastatin 10 binding by 5 μM test agent: 30 min room temperature; for IC50: test agent 0.5-100 μM, Hill fit
Description: as §1

[5] = 72 h, read-out: GI50 at (72 h) in T98 glioblastoma cells
[6] = 72 h, read-out: GI50 in T98G cell, 72 h
[7] = 96 h, read-out: GI50 at 96 h in T98 glioblastoma cells
[8] = 96 h, read-out: GI50 in T98G cell, 96 h

SMILES | loss in antiproliferative GI50 compared to dolastatin 10 and tubulysins A or D [1] | GI50 ([1]; 72 h) | GI50 [1, 5] | GI50 [1, 6] | GI50 ([1]; 96 h) | GI50 [1, 7] | GI50 [1, 8] | ability to inhibit [3H]vinblastine binding to isolated tubulin (in words) [2] | % Inhibition of [3H]vinblastine binding by 5 μM test agent [2] | IC50 [2] | IC50 [3] | % Inhibition of [3H]dolastatin 10 binding by 5 μM test agent [4] | IC50 [4]
CCC(C)[C@H](NC(=O)[C@H]1CCCCN1C)C(=O)N(C)[C@H](C[C@@H](OC(C)=O)c1nc(C(=O)N[C@@H](Cc2ccccc2)C[C@H](C)C(=O)O)cs1)C(C)C (stereo partly shown) [WZY-III-63C, N^14-Desacetoxytubulysin H trifluoroacetic acid salt] | 1-2 orders of magnitude | 0.43 to 4.4 µM | 0.0044 µM | 0.0044 ± 0.011 µM | 0.35 to 16 µM | 0.0016 ± 0.0008 µM | 0.0016 ± 0.0008 µM | equipotent to dolastatin 10 | 50 ± 4% | 5.6 ± 0.5 µM | 2.3 µM | 31 ± 3% | 10 ± 1 µM
CCC(C)[C@H](NC(=O)CN(C)C)C(=O)N(C)[C@H](C[C@H](OC(C)=O)c1nc(C(=O)N[C@@H](Cc2ccccc2)C[C@H](C)C(=O)O)cs1)C(C)C (stereo partly drawn) [WZY-III-64A, (2S,4R)-4-(2-((6S,9R,11S)-6-sec-Butyl-9-isopropyl-2,8-dimethyl-4,7,13-trioxo-12-oxa-2,5,8-triazatetradecan-11-yl)thiazole-4-carboxamido)-2-methyl-5-phenylpentanoic acid] |  | 0.43 to 4.4 µM | 0.59 µM | 0.59 ± 1 µM | 0.35 to 16 µM | 0.4 ± 0.03 µM | 0.4 ± 0.03 µM |  | 2 ± 5% | > 50 µM | > 5 µM | −11 ± 10% | 
CCC(C)[C@H](NC(=O)CN(C)C)C(=O)N(C)[C@H](C[C@@H](OC(C)=O)c1nc(C(=O)N[C@@H](Cc2ccccc2)C[C@H](C)C(=O)O)cs1)C(C)C (stereo partly drawn) [WZY-III-69A, (2S,4R)-4-(2-((6S,9R,11R)-6-sec-Butyl-9-iso-propyl-2,8-dimethyl-4,7,13-trioxo-12-oxa-2,5,8-triazatetradecan-11-yl)thiazole-4-carboxamido)-2-methyl-5-phenylpentanoic acid] |  | 0.43 to 4.4 µM | 0.43 µM | 0.43 ± 0.13 µM | 0.35 to 16 µM | 0.35 ± 0.04 µM | 0.35 ± 0.04 µM |  | 43 ± 1% | 8.8 ± 1.6 µM | 3.1 µM | 4 ± 3% | 64 ± 9 µM
